# Source: PMC6627609, “Targeting Quorum Sensing: High-Throughput Screening to Identify Novel LsrK Inhibitors” (International Journal of Molecular Sciences, 2019)
# Structures can show the parent of a compound that is named as a salt.
# Biological target: LsrK (Salmonella typhimurium, UniProt Q8ZKQ6)
# Assay: biochemical
# Type: biochemical, S. typhimurium
# Conditions: not given
# LsrK, sequence (Q8ZKQ6 whole entry): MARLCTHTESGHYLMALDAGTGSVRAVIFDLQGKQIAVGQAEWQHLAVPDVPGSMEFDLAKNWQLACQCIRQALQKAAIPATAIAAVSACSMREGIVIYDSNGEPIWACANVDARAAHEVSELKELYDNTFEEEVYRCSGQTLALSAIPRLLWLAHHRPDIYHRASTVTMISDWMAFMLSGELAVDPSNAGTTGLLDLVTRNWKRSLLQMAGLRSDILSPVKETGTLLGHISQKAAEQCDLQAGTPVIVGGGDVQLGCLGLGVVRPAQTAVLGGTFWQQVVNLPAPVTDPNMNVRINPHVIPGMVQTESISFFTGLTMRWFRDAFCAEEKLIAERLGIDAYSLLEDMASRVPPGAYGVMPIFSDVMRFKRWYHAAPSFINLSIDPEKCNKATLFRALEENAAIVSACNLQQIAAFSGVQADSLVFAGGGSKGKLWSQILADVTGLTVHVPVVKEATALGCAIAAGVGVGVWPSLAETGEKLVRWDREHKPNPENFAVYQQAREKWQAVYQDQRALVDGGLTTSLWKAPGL
Compound,inhibition at 50 µM [%],IC50 [µM]
OC[C@H]1O[C@@H](n2cnc3c(NCc4ccco4)ncnc32)[C@H](O)[C@@H]1O [KINETIN RIBOSIDE],0,
Nc1nc2c(c(=O)[nH]1)N=C(CNc1ccc(C(=O)N[C@@H](CCC(=O)O)C(=O)O)cc1)CN2 [DIHYDROFOLIC ACID],49,
COc1ccc2cc([C@H](C)CO)ccc2c1 [NAPROXOL],0,
"O=C(O)CC[N+](=O)[O-] [BOVINOCIDIN (3-nitropropionic acid), 3-nitropropionic acid]",5,
Cc1cccc(C)c1N=C1NCCCS1 [XYLAZINE],0,
CN(C)[C@@H]1C(O)=C(C(N)=O)C(=O)[C@@]2(O)C(O)=C3C(=O)c4c(O)cccc4[C@@](C)(O)[C@H]3[C@H](O)[C@@H]12 [OXYTETRACYCLINE],94,
S=P(N1CC1)(N1CC1)N1CC1 [THIOTEPA],14,
COc1cc(Cc2cnc(N)nc2N)cc(OC)c1OC [TRIMETHOPRIM],0,
CN(C)c1nc(N(C)C)nc(N(C)C)n1 [ALTRETAMINE],19,
COc1ccc(CCN(C)CCCC(C#N)(c2ccc(OC)c(OC)c2)C(C)C)cc1OC (stereo not drawn) [VERAPAMIL HYDROCHLORIDE],1,
CO/N=C(\C(=O)N[C@@H]1C(=O)N2C(C(=O)O)=C(COC(C)=O)CS[C@H]12)c1csc(N)n1 [CEFOTAXIME SODIUM],32,
CCCCC1C(=O)N(c2ccccc2)N(c2ccc(O)cc2)C1=O (stereo not drawn) [OXYPHENBUTAZONE],93,
O=C1C(CC[S+]([O-])c2ccccc2)C(=O)N(c2ccccc2)N1c1ccccc1 (stereo not drawn) [SULFINPYRAZONE],129,
N#C/C(=C\c1cccc(O)c1)C(=O)O [alpha-CYANO-3-HYDROXYCINNAMIC ACID],2,
COc1c(O)cccc1O [2-METHOXYRESORCINOL],0,
CC[N+](CC)(CC)CCOc1cccc(OCC[N+](CC)(CC)CC)c1OCC[N+](CC)(CC)CC [GALLAMINE TRIETHIODIDE],1,
CCN1CCN(c2cc3c(cc2F)c(=O)c(C(=O)O)cn3C2CC2)CC1 [ENROFLOXACIN],1,
O=C(O)P(=O)(O)O [FOSCARNET SODIUM],1,
CC1(C)[C@@H](O)CC[C@]2(C)[C@H]3C(=O)C=C4[C@@H]5C[C@@](C)(C(=O)O)CC[C@]5(C)CC[C@@]4(C)[C@]3(C)CC[C@@H]12 [ENOXOLONE],2,
O=C(O)CCC(=O)c1ccc(-c2ccccc2)cc1 [FENBUFEN],2,

Compound,inhibition at 50 µM [%],IC50 [µM]
O=C(c1ccc(OCCN2CCCCC2)cc1)c1c(-c2ccc(O)cc2)sc2cc(O)ccc12 [RALOXIFENE HYDROCHLORIDE],0,
C#C[C@]1(O)CC[C@H]2[C@@H]3CCC4=CC(=O)CC[C@@H]4[C@H]3CC[C@@]21C [NORETHINDRONE],0,
O=c1cc(-c2ccc(O)cc2)oc2cc(O[C@@H]3O[C@H](CO)[C@@H](O)[C@H](O)[C@H]3O[C@@H]3OC[C@](O)(CO)[C@H]3O)cc(O)c12 [APIIN],1,
Cc1ccccc1OCC(O)CO (stereo not drawn) [MEPHENESIN],1,
C=CC1=C(C)c2cc3[nH]c(cc4nc(cc5[nH]c(cc1n2)c(C)c5CCC(=O)O)C(CCC(=O)O)=C4C)c(C)c3C=C [PROTOPORPHYRIN IX],100,9
C=CCCCCCCCCC(=O)O [UNDECYLENIC ACID],1,
C[C@@H]1CC[C@H]2C(C)(C)[C@H]3C[C@@]12CC[C@@]3(C)O [CEDROL],13,
O=C(CCNNC(=O)c1ccncc1)NCc1ccccc1 [NIALAMIDE],3,
Oc1ccc(Cl)cc1Cc1cc(Cl)ccc1O [DICHLOROPHENE],1,
Cc1cc(O)c(C=O)c(O)c1C(=O)O [H[…]],1,
CN(C(=O)CN(CCO)CC(=O)N(C)C(C)(C)Cc1ccccc1)C(C)(C)Cc1ccccc1 [OXETHAZAINE],0,
CC[C@@H](C(=O)[C@@H](C)[C@@H](O)[C@H](C)[C@@H]1O[C@@H]([C@@H](CC)C(=O)O)CC[C@@H]1C)[C@H]1O[C@]2(C=C[C@@H](O)[C@]3(CC[C@@](C)([C@H]4CC[C@](O)(CC)[C@H](C)O4)O3)O2)[C@H](C)C[C@@H]1C [SALINOMYCIN. SODIUM],2,
CCOC(=O)NNc1nncc2ccccc12 [TODRALAZINE HYDROCHLORIDE],2,
N[C@@H](C(=O)N[C@@H]1C(=O)N2C(C(=O)O)=C(Cl)CS[C@H]12)c1ccccc1 [CEFACLOR],24,
CN(C)/N=N/c1[nH]cnc1C(N)=O [DACARBAZINE],3,
CC(=O)O[C@]1(C(C)=O)CC[C@H]2[C@@H]3C[C@H](C)C4=CC(=O)CC[C@]4(C)[C@H]3CC[C@@]21C [MEDROXYPROGESTERONE ACETATE],1,
C[C@H]1CC[C@]2(NC1)O[C@H]1C[C@H]3[C@@H]4CC[C@H]5C[C@@H](O[C@@H]6O[C@H](CO)[C@H](O[C@@H]7O[C@H](CO)[C@@H](O)[C@H](O[C@@H]8OC[C@@H](O)[C@H](O)[C@H]8O)[C@H]7O[C@@H]7O[C@H](CO)[C@@H](O)[C@H](O)[C@H]7O)[C@H](O)[C@H]6O)CC[C@]5(C)[C@H]4CC[C@]3(C)[C@H]1[C@@H]2C [TOMATINE],2,
C#CCCCCCCCCCCCC(O)CC(O)COC(C)=O (stereo not drawn) [AVOCADYNE ACETATE],1,
c1ccc2c(c1)[nH]c1cnccc12 [NORHARMAN],1,
CC(=O)Oc1ccccc1C(=O)O [ASPIRIN],0,

Compound,inhibition at 50 µM [%],IC50 [µM]
OC[C@H]1O[C@@H](O[C@@H]2[C@@H](CO)OC(O)(CO)[C@H]2O)[C@H](O)[C@@H](O)[C@H]1O (mixture of isomers) [LACTULOSE],2,
NC[C@@H]1CC[C@@H](N)[C@@H](O[C@H]2[C@H](O)[C@@H](O[C@H]3O[C@H](CO)[C@@H](O)[C@H](N)[C@H]3O)[C@H](N)C[C@@H]2N)O1 [DIBEKACIN],0,
CCCCCCCCCCCCCCCC[N+](C)(C)C [CETRIMONIUM BROMIDE],125,
C[C@]12C=CC(=O)C=C1CC[C@H]1[C@@H]3C[C@@H](O)[C@](O)(C(=O)CO)[C@@]3(C)C[C@H](O)[C@@]12F [TRIAMCINOLONE],11,
CCCCC(=O)N(Cc1ccc(-c2ccccc2-c2nnn[nH]2)cc1)[C@H](C(=O)O)C(C)C,1,
COc1ccccc1N1CCN(CCCNc2cc(=O)n(C)c(=O)n2C)CC1 [URAPIDIL HYDROCHLORIDE],1,
N=C(N)N/N=C/c1c(Cl)cccc1Cl [GUANABENZ ACETATE],0,
Nc1nc2c(c(=O)[nH]1)N(C=O)C(CNc1ccc(C(=O)N[C@@H](CCC(=O)O)C(=O)O)cc1)CN2 (stereo partly drawn) [LEUCOVORIN CALCIUM],5,
CCCCOC(=O)c1ccccc1C(=O)OCCCC [DIBUTYL PHTHALATE],0,
CN(C)CC/C=C1/c2ccccc2Sc2ccc(Cl)cc21 [CHLORPROTHIXENE HYDROCHLORIDE],2,
"Cc1cn([C@H]2C[C@H](N=[N+]=[N-])[C@@H](CO)O2)c(=O)[nH]c1=O [ZIDOVUDINE [AZT], ZIDOVUDINE]",36,
O=C(O)CCNC(=O)c1ccccc1 [BETAMIPRON],0,
Oc1ccc(Cl)cc1 [PARACHLOROPHENOL],1,
Oc1cc(Cl)ccc1Oc1ccc(Cl)cc1Cl [TRICLOSAN],2,
CCCCC(=O)O[C@H]1CC[C@H]2[C@@H]3CCc4cc(O)ccc4[C@H]3CC[C@]12C [ESTRADIOL VALERATE],3,
COC(=O)[C@H]1[C@H]2C[C@@H]3c4[nH]c5cc(OC)ccc5c4CCN3C[C@H]2C[C@@H](OC(=O)c2cc(OC)c(OC)c(OC)c2)[C@@H]1OC [RESERPINE],1,
CS(=O)(=O)c1ccc([C@@H](O)[C@@H](CF)NC(=O)C(Cl)Cl)cc1 [FLORFENICOL],2,
c1ccc2c(c1)CN1CCCC1=N2 [DESOXYPEGANINE HYDROCHLORIDE],0,
C[C@H]1O[C@@H](n2cc(F)c(=O)[nH]c2=O)[C@H](O)[C@@H]1O [DOXIFLURIDINE],1,
OC[C@@H](O)[C@H]1O[C@@H]2O[C@H](C(Cl)(Cl)Cl)O[C@@H]2[C@H]1O [CHLORALOSE],1,

# Same assay, conditions: 50 µM
row,Compound,Inhibition (%)
1,CC[C@H](C=C[C@@H](C)[C@H]1CC[C@H]2[C@@H]3CCC4=CC(=O)CC[C@]4(C)[C@H]3CC[C@]12C)C(C)C,1
2,CC(=O)O[C@@H]1CC2C(C)(C)C(=O)C3OC3[C@]2(C)C2CC[C@@]3(C)[C@H](c4ccoc4)OC(=O)C4OC43[C@@]21C (stereo partly drawn) [EPOXYGEDUNIN],0
3,O=c1c(-c2ccccc2)coc2cc(O)cc(O)c12 [5.7-DIHYDROXYISOFLAVONE],106
4,O=C(/C=C/c1ccccc1)c1ccc(O)cc1O [2'.4'-DIHYDROXYCHALCONE],19
5,CC1(C)C(=O)C=C[C@]2(C)[C@H]3CC[C@@]4(C)[C@H](c5ccoc5)OC(=O)[C@H]5O[C@]54[C@]3(C)C=C[C@@H]12 [7-DESACETOXY-6.7-DEHYDROGEDUNIN],33
6,O=C1CCO1 [BETA-PROPIOLACTONE],0
7,MECLOCYCLINE SULFOSALICYLATE,93
8,CO/N=C(/C(=O)N[C@@H]1C(=O)N2C(C(=O)[O-])=C(CSc3nc(=O)c([O-])nn3C)CS[C@H]12)c1csc(N)n1.O.O.O.[Na+].[Na+] [CEFTRIAXONE SODIUM TRIHYDRATE],0
9,CC(=O)O[C@@H]1CC2C(C)(C)[C@H](O)CC[C@]2(C)C2CC[C@@]3(C)[C@H](c4ccoc4)OC(=O)C4OC43[C@@]21C (stereo partly drawn) [alpha-DIHYDROGEDUNOL],1
10,Cl.NCCS [CYSTEAMINE HYDROCHLORIDE],19
11,CC12CCC3C(CC3(C)C)C(C)(CCC1=O)O2 (stereo not drawn) [3.7-EPOXYCARYOPHYLLAN-6-ONE],1
12,OCC(O)C(O)C(O)CO (stereo not drawn) [ARABITOL(D)],0
13,COc1ccc(-c2cc(=O)c3cc(OC)ccc3o2)cc1 [6.4'-DIMETHOXYFLAVONE],2
14,COc1cc2c(cc1OC)[C@@H]1C(=O)c3c(O)cc4c(c3O[C@@H]1CO2)C=CC(C)(C)O4 [alpha-TOXICAROL],10
